Results on eight compounds are retold here after patent publication US8747881B2, “Intraluminal medical devices in combination with therapeutic agents” (Cordis Corporation, priority 2003, dated 2014).

A short description of data set [1]: Drug concentration in liquid formulations by liquid chromatography / HPLC. The data set is classed as physicochemical. The method, then:
Table 8, shown below, summarizes the concentrations of the excipient, the co-solvents and the drug for four different liquid formulations in accordance with exemplary embodiments of the present invention.
In another exemplary embodiment, the liquid formulation of sirolimus comprises water and ethanol as co-solvents and Vitamin E TPGS as the excipient. The liquid formulation was created utilizing the following process. Two hundred milligrams of sirolimus and two grams of ethanol were added to a pre-weighed twenty milliliter scintillation vial. The vial was vortexed and sonicated until the sirolimus was completely dissolved. Approximately six hundred milligrams of Vitamin E TPGS was then added to the solution of ethanol and sirolimus. The vial was vortexed again until a clear yellowish solution was obtained. Nitrogen gas was then used to reduce the amount of ethanol in the vial to approximately two hundred twenty-nine milligrams. In a separate vial, three hundred milligrams of Vitamin E TPGS was dissolved in eleven milliliters of purified water while undergoing vortexing. The Vitamin E TPGS and water solution was then added to the first vial containing the sirolimus, Vitamin E TPGS and ethanol. The first vial was then vortexed vigorously and continuously for three minutes. […] The foam gradually disappeared after sitting at room temperature. […]

Data set [2] deals with human coronary artery smooth muscle cell. In words: MTS cytotoxicity assay. The following applies: concentrations up to 30,000.00 nanomolar, FIG. 69. The data set is classed as cell-based. The text has this:
Typically, a control is utilized to determine baseline toxicity.
In general terms: Tetrazolium dyes change colour on reduction, which living cells bring about.

For data set [3], the system named is human coronary artery smooth muscle cells. The data set is described as follows: Anti-proliferative activity in synchronized cultured cells stimulated with two percent fetal bovine serum. Conditions: for effect on the anti-proliferative activity of rapamycin when added: added to cells treated with rapamycin. The data set is classed as cell-based. The text has this: (§1) The multiple curves represent various concentrations of topotecan ranging from zero to three hundred nanomolar concentrations.
(§2) The multiple curves represent various concentrations of etoposide ranging from zero to eight hundred nanomolar concentrations.
The multiple curves represent various concentrations of Panzem® ranging from zero to 100 micromolar concentrations.

A further data set has as its system cell viability. The data set is described as follows: Cell viability assay. The data set is classed as cell-based.
Excerpt: as §1, §2

In data set [4] the test system is human coronary artery smooth muscle cells. The data set is described as follows: Anti-proliferative activity in non-synchronized cultured cells stimulated with two percent fetal bovine serum. The data set is classed as cell-based. Conditions: for effect on the anti-proliferative activity of rapamycin when added: non-synchronized cells, added to cells treated with rapamycin. The source says: The multiple curves represent various concentrations of mycophenolic acid ranging from zero to one thousand nanomolar concentrations. […] This potentiation observed in cultured coronary artery smooth muscle cells preferably translates to an enhancement in anti-restenotic efficacy following vascular injury and a reduction in the required amount of either agent to achieve the desired anti-restenotic effect.
FIG. 58 illustrates, in graphical format, the anti-proliferative activity of cladribine in non-synchronized cultured human coronary artery smooth muscle cells stimulated with two percent fetal bovine serum.
The multiple curves represent various concentrations of cladribine ranging from zero to nine hundred nanomolar concentrations. […] As illustrated, the percent inhibition increases substantially as the dose of cladribine increases.

Data set [5] deals with human smooth muscle cells. In words: Cladribine Example: PDGF-stimulated cell proliferation, smooth muscle cells. The data set is classed as cell-based. Conditions: from the IC50 values. On the procedure:
To assess the ability of cladribine to prevent cell proliferation, human smooth muscle or endothelial cells (Clonetics, Walkersville, Md.) were seeded at a density of 2000 cells/cm^2 (approximately 3600 cells/well) into each well of 12-well plates and cultured with 1.5 ml of growth medium containing five percent fetal calf serum (FCS). After twenty-four hours, the growth medium was changed and fresh medium containing 10 ng/ml platelet-derived growth factor AB (PDGF AB; LIFE Technologies), as well as various concentrations of cladribine (0.001-10,000 nM) were added with triplicate wells. Medium was replaced with fresh cladribine-containing medium after three days. On day six, cells were detached by trypsinization to yield a cell suspension, lightly centrifuged to pellet and then counted manually using a Neubauer hemocytometer system. Cell viability was assessed by trypan blue exclusion.

In data set [6] the test system is human coronary artery smooth muscle cell. In words: In vitro cell culture study of coronary artery smooth muscle cell proliferation. The data set is classed as cell-based. The text has this:
FIG. 51 is a graph of the inhibition of coronary artery smooth muscle cells by trichostatin A in a cell culture study.

For a further data set, the system named is tumor cell lines. The following applies: cited from earlier work.

For the compound `CO[C@H]1C[C@@H]2CC[C@@H](C)[C@@](O)(O2)C(=O)C(=O)N2CCCC[C@H]2C(=O)O[C@H]([C@H](C)C[C@@H]2CC[C@@H](OC(=O)C(C)(CO)CO)[C@H](OC)C2)CC(=O)[C@H](C)/C=C(\C)[C@@H](O)[C@@H](OC)C(=O)[C@H](C)C[C@H](C)/C=C/C=C/C=C/1C` [CCI-779], the “concentration in the final solution (HPLC assay)” value in data set [1] (ethanol (less than two percent), Vitamin E TPGS and water) came out at 15000 µg/mL.

Consider `COc1cc2c(cc1O)CC[C@@H]1[C@@H]2CC[C@]2(C)[C@@H](O)CC[C@@H]12` [Panzem®, 2-methoxyestradiol], for which, in data set [2], the “cell survival (MTS assay)” value is on record as “do not reduce human coronary artery smooth muscle cell survival”. Besides, the “inhibition of human coronary artery smooth muscle cell proliferation in vitro” value in data set [3] (FIG. 66) was “extremely effective inhibitor”. Moreover, the “effect on the anti-proliferative activity of rapamycin when added” value (“effect” for short) in data set [3] is reported as “increases the percent of inhibition of rapamycin alone”.

With `COc1cc([C@@H]2c3cc4c(cc3[C@@H](O[C@@H]3O[C@@H]5CO[C@@H](C)O[C@H]5[C@H](O)[C@H]3O)[C@H]3COC(=O)[C@H]23)OCO4)cc(OC)c1O` [Etoposide, etoposide], the cytotoxicity result with cell viability (concentrations up to ten micromolar) is listed as “non-cytotoxic”. Further, the “effect” value in data set [3] is recorded as “increases the percent inhibition of rapamycin alone”.

In the case of `COc1c(C)c2c(c(O)c1C/C=C(\C)CCC(=O)O)C(=O)OC2` [mycophenolic acid], the “effect” value in data set [4] was “potentiates the anti-proliferative activity of rapamycin”.

On to `Nc1nc(Cl)nc2c1ncn2[C@H]1C[C@H](O)[C@@H](CO)O1` [Cladribine, 2-chlorodeoxyadenosine], for which, in data set [5], the “potency as inhibitor of smooth muscle cells relative to endothelial cells” value was “approximately twice”. For the same compound, the “effect” value in data set [4] was “increases the percent inhibition of rapamycin alone”. The “inhibition of human coronary artery smooth muscle cell proliferation” value in data set [4] (non-synchronized, two percent fetal bovine serum, FIG. 58) is on record as “completely inhibits”.

Take `CC(/C=C/C(=O)NO)=C\[C@@H](C)C(=O)c1ccc(N(C)C)cc1` [trichostatin A]: the IC50 in data set [6] (human coronary artery smooth muscle cell proliferation, read-out: anti-proliferative IC50) was about 6 nM. Further, the “inhibition of human coronary artery smooth muscle cell proliferation” value in data set [6] (in vitro cell culture) is “completely inhibit”. Further, the “anti-proliferative IC50” value in the data set on tumor cell lines is given as “low nM range”.

Regarding `CO[C@H]1C[C@@H]2CC[C@@H](C)[C@@](O)(O2)C(=O)C(=O)N2CCCC[C@H]2C(=O)O[C@H]([C@H](C)C[C@@H]2CC[C@@H](O)[C@H](OC)C2)CC(=O)[C@H](C)/C=C(\C)[C@@H](O)[C@@H](OC)C(=O)[C@H](C)C[C@H](C)/C=C/C=C/C=C/1C` [Rapamycin, rapamycin], the “concentration relative to the solubility of sirolimus in water” value in data set [1] (4 mg/ml formulation with PEG 200, ethanol and water) is “four hundred to about one thousand”.

As to `CC[C@@]1(O)C(=O)OCc2c1cc1n(c2=O)Cc2cc3c(CN(C)C)c(O)ccc3nc2-1` [Topotecan, topotecan], in the data set with cell viability (concentrations up to one micromolar), the cytotoxicity result is reported as “non-cytotoxic”. For the same compound, the “effect” value in data set [3] was “increases the percent inhibition of rapamycin alone”.

A word on the IC50: it is the point on the concentration scale where inhibition reaches its midpoint.
